Our source for the IC50 and CC50 values is publication PMC10784557, “In silico and in vitro prediction of new synthesized N-heterocyclic compounds as anti-SARS-CoV-2” (Scientific Reports, 2024).

The structures appear in SMILES notation. Converted amounts (≈) assume the structure as drawn.

Data set [1] relates to SARS-CoV-2 (hCoV-19/Egypt/NRC-03/2020). Nature of the data set: Inhibitory concentration 50 (IC50) determination, virus-induced cytopathic effect, crystal violet. In kind it is cell-based. The conditions noted are these: Severe acute respiratory syndrome coronavirus 2, Vero C1008; Vero-E6 cells infected with hCoV-19/Egypt/NRC-03/2020, 72 h. Here is the method: In 96-well tissue culture plates, 2.4 × 10^4 Vero-E6 cells were distributed in each well and incubated overnight at a humidified 37 °C incubator under 5%CO2 condition. The cell monolayers were then washed once with 1 × PBS and subjected to virus adsorption (hCoV-19/Egypt/NRC-03/2020 (Accession Number on GSAID: EPI_ISL_430820)) for 1 h at room temperature (RT). More details were provided in Supplementary Information.
3.4.Inhibitory concentration 50 (IC50) determination
In 96-well tissue culture plates, 2.4×10^4 Vero-E6 cells were distributed in each well and incubated overnight at a humidified 37°C incubator under 5%CO2 condition. The cell monolayers were then washed once with 1x PBS and subjected to virus adsorption (hCoV-19/Egypt/NRC-03/2020 (Accession Number on GSAID: EPI_ISL_430820)) for 1 h at room temperature (RT). The cell monolayers were further overlaid with 100μl of DMEM containing varying concentrations of the test compounds. Following incubation at 37°C in 5% CO2 incubator for 72 h, the cells were fixed with 100 μl of 4% paraformaldehyde for 20 min and stained with 0.1% crystal violet in distilled water for 15 min at RT. The crystal violet dye was then dissolved using 100 μl absolute methanol per well and the optical density of the color is measured at 570 nm using Anthos Zenyth 200rt plate reader (Anthos Labtec Instruments, Heerhugowaard, Netherlands). The IC50 of the compound is that required to reduce the virus -induced cytopathic effect (CPE) by 50%, relative to the virus control.
For orientation: Damage to the host cells serves as the signal in cytopathic effect assays.

The next data set can be described thus: in vitro. The settings on record: African green monkey.

In general, IC50 refers to the point on the concentration scale where inhibition reaches its midpoint. In turn, `Clc1nc2ccccc2cc1C=Nc1nnc(-c2cccnc2)s1` [Compound 12, 1-(2-chloroquinolin-3-yl)-N-(5-(pyridin-3-yl)-1,3,4-thiadiazol-2-yl)methanimine] returned a half-inhibitory concentration (IC50) in data set [1] of 120 µg/mL (≈ 341 µM). The CC50 at 24 h in the data set “in vitro” was found to be 512 µg/mL (≈ 1450 µM).
The molecule `N=c1oc2ccccc2cc1-c1nnc(-c2cccnc2)o1` [Compound 5, 3-(5-(pyridin-3-yl)-1,3,4-oxadiazol-2-yl)-2H-chromen-2-imine] gave an IC50 in data set [1] of 55 µg/mL (≈ 189 µM). The same molecule registered a CC50 at 24 h in the data set “in vitro” of 312 µg/mL (≈ 1070 µM).
In data set [1], `C(=Nc1nnc(-c2cccnc2)s1)c1c[nH]c2ccccc12` [Compound 11, 1-(1H-indol-3-yl)-N-(5-(pyridin-3-yl)-1,3,4-thiadiazol-2-yl)methanimine] displayed a concentration for half-maximal inhibition (IC50) of 216 µg/mL (≈ 707 µM). The molecule further showed a CC50 at 24 h in “in vitro” of 552 µg/mL (≈ 1810 µM).
